System: NOMO1
Experiment: cell viability relative to DMSO control; higher = less cytotoxic
Conditions: 48 h
In short: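 In 1536-well plates, 5 μl of leukemia cells were seeded per well: 500 cells/well for NOMO1 or SEM and 1000 cells/well for P12-Ichikawa. Each line had first been adapted for at least four passages in each medium. Library compounds in DMSO were pin-dosed at 11 threefold concentrations between 47 μM and 0.79 nM, and CellTiter-Glo One luminescence was read after 48 h at 37°C. Viability is a per-plate percentage relative to DMSO wells, with cell-free wells as background.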

[1] = HPLM + 10% dialyzed FBS, 0.000781 µM
[2] = HPLM + 10% dialyzed FBS, 0.00234 µM
[3] = HPLM + 10% dialyzed FBS, 0.00702 µM
[4] = HPLM + 10% dialyzed FBS, 0.0211 µM
[5] = HPLM + 10% dialyzed FBS, 0.0632 µM
[6] = HPLM + 10% dialyzed FBS, 0.19 µM
[7] = HPLM + 10% dialyzed FBS, 0.569 µM
[8] = HPLM + 10% dialyzed FBS, 1.71 µM
[9] = HPLM + 10% dialyzed FBS, 5.12 µM
[10] = HPLM + 10% dialyzed FBS, 15.4 µM
[11] = HPLM + 10% dialyzed FBS, 46.1 µM
[12] = RPMI 5 mM glucose + 10% FBS, 0.000781 µM
[13] = RPMI 5 mM glucose + 10% FBS, 0.00234 µM
[14] = RPMI 5 mM glucose + 10% FBS, 0.00702 µM
[15] = RPMI 5 mM glucose + 10% FBS, 0.0211 µM
[16] = RPMI 5 mM glucose + 10% FBS, 0.0632 µM
[17] = RPMI 5 mM glucose + 10% FBS, 0.19 µM
[18] = RPMI 5 mM glucose + 10% FBS, 0.569 µM
[19] = RPMI 5 mM glucose + 10% FBS, 1.71 µM
[20] = RPMI 5 mM glucose + 10% FBS, 5.12 µM
[21] = RPMI 5 mM glucose + 10% FBS, 15.4 µM
[22] = RPMI 5 mM glucose + 10% FBS, 46.1 µM
[23] = RPMI 5 mM glucose + 10% dialyzed FBS, 0.000781 µM
[24] = RPMI 5 mM glucose + 10% dialyzed FBS, 0.00234 µM
[25] = RPMI 5 mM glucose + 10% dialyzed FBS, 0.00702 µM
[26] = RPMI 5 mM glucose + 10% dialyzed FBS, 0.0211 µM
[27] = RPMI 5 mM glucose + 10% dialyzed FBS, 0.0632 µM
[28] = RPMI 5 mM glucose + 10% dialyzed FBS, 0.19 µM
[29] = RPMI 5 mM glucose + 10% dialyzed FBS, 0.569 µM
[30] = RPMI 5 mM glucose + 10% dialyzed FBS, 1.71 µM
[31] = RPMI 5 mM glucose + 10% dialyzed FBS, 5.12 µM
[32] = RPMI 5 mM glucose + 10% dialyzed FBS, 15.4 µM
[33] = RPMI 5 mM glucose + 10% dialyzed FBS, 46.1 µM

CC(C)NCC(O)COc1ccc(COCCOC(C)C)cc1 (stereo unspecified)
cell viability [1]: 114%
cell viability [2]: 110%
cell viability [3]: 121%
cell viability [4]: 113%
cell viability [5]: 122%
cell viability [6]: 99.8%
cell viability [7]: 118%
cell viability [8]: 109%
cell viability [9]: 109%
cell viability [10]: 95.4%
cell viability [11]: 73.1%
cell viability [12]: 108%
cell viability [13]: 116%
cell viability [14]: 108%
cell viability [15]: 107%
cell viability [16]: 114%
cell viability [17]: 116%
cell viability [18]: 107%
cell viability [19]: 110%
cell viability [20]: 97.3%
cell viability [21]: 103%
cell viability [22]: 91.4%
cell viability [23]: 111%
cell viability [24]: 111%
cell viability [25]: 119%
cell viability [26]: 105%
cell viability [27]: 129%
cell viability [28]: 111%
cell viability [29]: 111%
cell viability [30]: 99.7%
cell viability [31]: 111%
cell viability [32]: 116%
cell viability [33]: 88.7%

CC1(C)O[C@@H]2C[C@H]3[C@@H]4CCC5=CC(=O)C=C[C@]5(C)[C@@]4(F)[C@@H](O)C[C@]3(C)[C@]2(C(=O)CO)O1
cell viability [1]: 110%
cell viability [2]: 119%
cell viability [3]: 112%
cell viability [4]: 111%
cell viability [5]: 117%
cell viability [6]: 108%
cell viability [7]: 90.6%
cell viability [8]: 105%
cell viability [9]: 86.3%
cell viability [10]: 48.4%
cell viability [11]: 25.8%
cell viability [12]: 98.3%
cell viability [13]: 112%
cell viability [14]: 96.1%
cell viability [15]: 111%
cell viability [16]: 115%
cell viability [17]: 121%
cell viability [18]: 117%
cell viability [19]: 109%
cell viability [20]: 97.7%
cell viability [21]: 33.2%
cell viability [22]: 18.1%
cell viability [23]: 106%
cell viability [24]: 112%
cell viability [25]: 111%
cell viability [26]: 127%
cell viability [27]: 122%
cell viability [28]: 117%
cell viability [29]: 113%
cell viability [30]: 110%
cell viability [31]: 99.8%
cell viability [32]: 105%
cell viability [33]: 32.2%

COc1ccc(CC2NCCc3cc(OC)c(OC)cc32)cc1OC (stereo unspecified)
cell viability [1]: 91.9%
cell viability [2]: 87.5%
cell viability [3]: 82.6%
cell viability [4]: 103%
cell viability [5]: 102%
cell viability [6]: 98.7%
cell viability [7]: 91.6%
cell viability [8]: 87.4%
cell viability [9]: 101%
cell viability [10]: 93.7%
cell viability [11]: 98.4%
cell viability [12]: 88.1%
cell viability [13]: 86.2%
cell viability [14]: 87%
cell viability [15]: 90.8%
cell viability [16]: 86.8%
cell viability [17]: 89.3%
cell viability [18]: 89.7%
cell viability [19]: 94.7%
cell viability [20]: 86.6%
cell viability [21]: 89.4%
cell viability [22]: 97.1%
cell viability [23]: 79.5%
cell viability [24]: 84.1%
cell viability [25]: 83.9%
cell viability [26]: 91.2%
cell viability [27]: 86.3%
cell viability [28]: 89.2%
cell viability [29]: 82.9%
cell viability [30]: 91%
cell viability [31]: 89.5%
cell viability [32]: 73.3%
cell viability [33]: 85.4%

CC(C)[C@@H](N(CCCN)C(=O)C1=CC=C(C)C=C1)C/2=N/C3=CC(=CC=C3C(=O)N2CC4=CC=CC=C4)Cl
cell viability [1]: 88.4%
cell viability [2]: 25.4%
cell viability [3]: 29.7%
cell viability [4]: 21.4%
cell viability [5]: 20.8%
cell viability [6]: 27.1%
cell viability [7]: 28%
cell viability [8]: 24.4%
cell viability [9]: 20%
cell viability [10]: 15.8%
cell viability [11]: 11.4%
cell viability [12]: 81.9%
cell viability [13]: 16%
cell viability [14]: 16.1%
cell viability [15]: 17.8%
cell viability [16]: 16.9%
cell viability [17]: 15.3%
cell viability [18]: 15.3%
cell viability [19]: 14.3%
cell viability [20]: 9.97%
cell viability [21]: 9.55%
cell viability [22]: 7.35%
cell viability [23]: 78.1%
cell viability [24]: 24%
cell viability [25]: 24.8%
cell viability [26]: 21.9%
cell viability [27]: 22.9%
cell viability [28]: 24.4%
cell viability [29]: 18.7%
cell viability [30]: 15.8%
cell viability [31]: 11.7%
cell viability [32]: 16.3%
cell viability [33]: 11.1%

CC/C(=C(/c1ccc(O)cc1)c1ccc(OCCNC)cc1)c1ccccc1
cell viability [1]: 99.4%
cell viability [2]: 98.4%
cell viability [3]: 98%
cell viability [4]: 103%
cell viability [5]: 106%
cell viability [6]: 130%
cell viability [7]: 113%
cell viability [8]: 123%
cell viability [9]: 90.8%
cell viability [10]: 75.9%
cell viability [11]: 47.1%
cell viability [12]: 102%
cell viability [13]: 97.2%
cell viability [14]: 120%
cell viability [15]: 108%
cell viability [16]: 114%
cell viability [17]: 97.9%
cell viability [18]: 117%
cell viability [19]: 122%
cell viability [20]: 108%
cell viability [21]: 100%
cell viability [22]: 45.8%
cell viability [23]: 103%
cell viability [24]: 99.7%
cell viability [25]: 102%
cell viability [26]: 115%
cell viability [27]: 101%
cell viability [28]: 106%
cell viability [29]: 111%
cell viability [30]: 104%
cell viability [31]: 96.2%
cell viability [32]: 84.3%
cell viability [33]: 55.6%

Cc1ccccc1C(C(=O)NC1CCCCC1)N(C(=O)Cn1ccnc1C)c1cccc(F)c1 (stereo unspecified)
cell viability [1]: 96.4%
cell viability [2]: 93.1%
cell viability [3]: 122%
cell viability [4]: 119%
cell viability [5]: 123%
cell viability [6]: 111%
cell viability [7]: 108%
cell viability [8]: 90%
cell viability [9]: 100%
cell viability [10]: 99.2%
cell viability [11]: 89.4%
cell viability [12]: 88.6%
cell viability [13]: 93.9%
cell viability [14]: 102%
cell viability [15]: 91.9%
cell viability [16]: 93.9%
cell viability [17]: 109%
cell viability [18]: 106%
cell viability [19]: 91.7%
cell viability [20]: 90.7%
cell viability [21]: 86%
cell viability [22]: 97.3%
cell viability [23]: 104%
cell viability [24]: 85.9%
cell viability [25]: 104%
cell viability [26]: 106%
cell viability [27]: 99.1%
cell viability [28]: 116%
cell viability [29]: 100%
cell viability [30]: 91%
cell viability [31]: 91.4%
cell viability [32]: 93.3%
cell viability [33]: 80.7%

CC(=O)N(C)c1cccc(-c2ccnc3c(C(=O)c4cccs4)cnn23)c1
cell viability [1]: 110%
cell viability [2]: 107%
cell viability [3]: 110%
cell viability [4]: 77.7%
cell viability [5]: 99.4%
cell viability [6]: 94.8%
cell viability [7]: 104%
cell viability [8]: 119%
cell viability [9]: 97.5%
cell viability [10]: 113%
cell viability [11]: 95.2%
cell viability [12]: 95.6%
cell viability [13]: 104%
cell viability [14]: 100%
cell viability [15]: 92.6%
cell viability [16]: 99.5%
cell viability [17]: 104%
cell viability [18]: 98%
cell viability [19]: 100%
cell viability [20]: 102%
cell viability [21]: 94.5%
cell viability [22]: 90.1%
cell viability [23]: 92.8%
cell viability [24]: 103%
cell viability [25]: 87.2%
cell viability [26]: 73.7%
cell viability [27]: 97.9%
cell viability [28]: 89%
cell viability [29]: 99.4%
cell viability [30]: 87.2%
cell viability [31]: 95.6%
cell viability [32]: 99.6%
cell viability [33]: 82.2%
